Test results published in patent publication EP0191624A2, “Gold-purine antitumor agents” (ENGELHARD CORPORATION, priority 1985, dated 1986).
Where “and” joins values, the source holds several entries; their conditions need not be identical. Identical values can stand only once.

Tests used:
S180 ascites = experiment: Screening for anti-tumor activity against S180 ascites (increase in life span); assay type: in vivo, female CFW Swiss mice; conditions: for %ILS: injected day 1; for 30-Day Survivors: survivors/mice in set
Experimental: The compounds were evaluated for anti-tumor activity against S180 ascites in female CFW Swiss mice by the following procedure: • CFW mice, averaging 20g, are immediately inspected and placed in newly prepared cages. On day zero the mice are inoculated with 0.2 ml. of a freshly prepared saline suspension (0.15 M NaCl) containing 1 x 10^7 tumor cells/ ml, or a total of 2 x 10^6 cells. This inoculum is freshly prepared using "transfer" mice which have been injected with tumor cells the previous week. This inoculum is the end-product of a series of steps which involves (1) the removal of the cells from the peritoneal cavity of the sacrificed transfer mouse, (2) alternate centrifugation- washing (2-3 times with cold saline) to remove occasional blood and other undesirable components, and finally (3) dilution (1:3) of the packed cell volume with saline (the final centrifugation being carried out at 1,000 rpm for 2 min.). A cell count is made on a 2,000-fold dilution of this 1:3 suspension by means of a Coulter Counter. A final dilution to 1 x 10^7 cells/ml. is made based on the averaged count. On day 1, solutions of the test compounds are prepared and the mice injected, with each mouse of a set of six being injected with the same test compound at the same dose level.
Also, on this day, two types of controls (6 mice/se are employed: (1) Normal (1 set): 0.5 ml. of the solvent medium used for the test compound, and (2) Positive control (1 set): a known anti-tumor agent (cis-(Pt(NH3)2Cl2] in saline at 8 mg./kg.), used to test the response of the biological system.
ILS values above 50% represent significant activity; those above 75% represent excellent activity.

[1] = Stability in aqueous solution with respect to reduction; assay type: physicochemical
Solubility in water = assay type: physicochemical
[2] = C. Dragulescu et al, Int. Coord. Chem. Conf. XVI 1,99 (1974); cited from earlier work
[3] = positive control in saline at 8 mg./kg., run alongside each test compound

Compound	Control 30-Day Survivors (S180 ascites; [3])	Control %ILS (S180 ascites; [3])	%ILS (S180 ascites; dose 5 mg/kg)	30-Day Survivors (S180 ascites; dose 5 mg/kg)	%ILS (S180 ascites; dose 10 mg/kg)	30-Day Survivors (S180 ascites; dose 10 mg/kg)	%ILS (S180 ascites; dose 20 mg/kg)	30-Day Survivors (S180 ascites; dose 20 mg/kg)	%ILS (S180 ascites; dose 40 mg/kg)	30-Day Survivors (S180 ascites; dose 40 mg/kg)	%ILS (S180 ascites; dose 80 mg/kg)	30-Day Survivors (S180 ascites; dose 80 mg/kg)	%ILS (S180 ascites; dose 160 mg/kg)	30-Day Survivors (S180 ascites; dose 160 mg/kg)	stable, at least with respect to reduction, in solution [1]	soluble in water (Solubility in water)	%ILS (S180 ascites; dose 320 mg/kg)	30-Day Survivors (S180 ascites; dose 320 mg/kg)	antitumor activity in mice [2]
N.N.[Cl][Pt][Cl] [Control, cis-diamminedichloroplatinum(II), reference compound]	3/6 and 4/5	80% and 96%	–	–	–	–	–	–	–	–	–	–	–	–	–	–	–	–	–
Cl.Cn1c(=O)c2c(ncn2CCCl)n(C)c1=O.Cn1c(=O)c2c(ncn2CCCl)n(C)c1=O.[Cl][Au]([Cl])[Cl] [Example 1, [AuCl3(7-chloroethyl-theophylline)](7-chloro-ethyltheophylline)·HCl]	–	–	8%	0/6	-3%	0/6	14%	0/6	9%	0/6	79%	3/6	3%	1/6	ca. 24 hours	at least 64 mg/5 ml	–	–	–
Cl.Cn1c(=O)c2c(ncn2CC(O)CO)n(C)c1=O.Cn1c(=O)c2c(ncn2CC(O)CO)n(C)c1=O.[Cl][Au]([Cl])[Cl] (stereo not shown) [Example 2, [AuCl3(7-(2,3-dihydroxy-propyl)theophylline)] (7-(2,3-dihydroxypropyl)theophylline)·HCl]	–	–	–	–	-13%	0/6	-11%	0/6	-3%	0/6	69%	2/6	34%	1/6	ca. 24 hours	at least 64 mg/5 ml	-62%	0/6	–
[Au(III)(5-diazauracil)2Cl2]Cl	–	–	–	–	–	–	–	–	–	–	–	–	–	–	–	–	–	–	possess antitumor activity
